{
  "source": "patent US6087391A",
  "about": "“Method of rendering organic compounds soluble in fatty systems, novel chemical complexes of such compounds and various applications of the complexes” (priority 1994, dated 2000)",
  "assay": "Simulation of bioavailability: availability of test compound in standardised enteric juice",
  "settings": "enteric juice pH 8.3, 37 degrees Celsius; mean over the entire experiment (60-240 minutes); mean of two experiments",
  "description": "5 g of test compound either pure or in ethanolic solution was mixed with 5-20 g of the below mentioned carrier. After vigorously mixing ethanol was removed by evaporation.\nThe following carrier was used: diacetylated monoglyceride with the following fatty acid composition based on the monoglyceride: about 50% lauric acid (12:0), 20% myristic acid (14:0), 15% caprylic/capric acid (8:0 and 10:0) and 10% palmitic acid (16:0).\nThe pH was adjusted to 8.3.\n0.500 g complex and 50 ml of standardised enteric juice was mixed in a 100 ml vessel and placed on a shaking water bath at 37 degrees Celsius under moderate agitation. As controls pure test compound corresponding to 0.500 g complex was used instead of 0.500 g complex.\nSamples of 1.000 ml were collected after 60, 120, 180 and 240 minutes. The samples were extracted with 1.5 ml of 1-butanol. The concentration of test compound in the enteric juice was determined by an appropriate method (spectrophotometrically or by HPLC).",
  "data": [
    {"smiles": "COC1=C(OC)C(=O)C(C/C=C(\\C)CC/C=C(\\C)CC/C=C(\\C)CC/C=C(\\C)CC/C=C(\\C)CC/C=C(\\C)CC/C=C(\\C)CC/C=C(\\C)CC/C=C(\\C)CCC=C(C)C)=C(C)C1=O", "note": "[Q10, coenzyme Q10]", "values": [
      {"measurement": "availability in the complex form compared to pure test compound", "value": "2,2 times"}
    ]}
  ]
}
